Data published in patent publication US9951058B2, “Compound, pharmaceutically acceptable salt or optical isomer thereof, method for preparing the same, and pharmaceutical composition for prevention or treatment of viral diseases containing same as active ingredient” (Korea Research Institute of Chemical Technology, priority 2012, dated 2018).
Converted amounts (≈) assume the structure as drawn.

How the values were obtained:
in vitro = conditions: human
HRV 14 = experiment: Cytopathic effect (CPE) inhibition assay; assay type: cell-based, human rhinovirus; conditions: Human rhinovirus sp., HeLa, 72 h, host cell HeLa, 3 days, MEM/2% FBS, MTT assay; read-out: EC50 HRV 14
HRV 71 = experiment: Cytopathic effect (CPE) inhibition assay; assay type: cell-based, human rhinovirus; conditions: Human rhinovirus sp., 72 h; host cell HeLa, 3 days, MEM/2% FBS, MTT assay; read-out: EC50 HRV 71
poliovirus 3 (PV3) = experiment: microbe, parasite or virus in culture; assay type: cell-based; conditions: Enterovirus C, 72 h, read-out: EC50 PV3
[1] = tested on: coxsackievirus B3 (Cox B3); experiment: Multicycle cytopathic effect (CPE) reduction assay; assay type: cell-based; conditions: Enterovirus B, B3, 72 h, read-out: EC50 CoxB3
HRV 21 = experiment: Cytopathic effect (CPE) inhibition assay; assay type: cell-based, human rhinovirus; conditions: Human rhinovirus sp., 72 h; host cell HeLa, 3 days, MEM/2% FBS, MTT assay; read-out: EC50 HRV 21
[2] = Cytotoxicity (CC50) in multicycle CPE reduction assay, MTS; conditions: human
[3] = tested on: coxsackievirus B1 (Cox B1); experiment: Multicycle cytopathic effect (CPE) reduction assay; assay type: cell-based; conditions: Enterovirus B, B1, 72 h, read-out: EC50 CoxB1

Compound | CC50 (in vitro) | EC50 (HRV 14) | EC50 (HRV 71) | EC50 (poliovirus 3 (PV3)) | EC50 [1] | EC50 (HRV 21) | CC50 at 3 days [2] | EC50 [3]
CCCC(=O)C(=O)NC12C(=O)c3ccccc3C1(O)Oc1cc(C(C)C)ccc12 (stereo not drawn) [Example 5, N-(4b-hydroxy-7-isopropyl-10-oxo-9b, 10-dihydro-4bH-indeno[1,2-b]benzofuran-9b-yl)-2-oxo pentanamide] | 8.49 µg/mL (≈ 21.6 µM) | < 0.1 µg/mL | > 8.49 µg/mL | < 0.1 µg/mL | < 0.01 µg/mL | > 8.49 µg/mL | > 10 µg/mL | < 0.01 µg/mL
CC(C)c1ccc2c(c1)OC1(O)c3ccccc3C(=O)C21NC(=O)C(=O)CCc1ccccc1 (stereo not drawn) [Example 39, N-(4b-hydroxy-7-isopropyl-10-oxo-4b, 10-dihydro-9bH-indeno[1,2-b]benzofuran-9b-yl)-2-oxo-4-phenyl butanamide] | 9.5 µg/mL (≈ 20.9 µM) | < 10 µg/mL | > 9.5 µg/mL | < 10 µg/mL | < 0.1 µg/mL | > 9.5 µg/mL | > 10 µg/mL | < 0.1 µg/mL
CC(C)c1ccc2c(c1)OC1(O)c3ccccc3C(=O)C21NC(=O)C(=O)CBr (stereo not drawn) [Example 41, 3-bromo-N-(4b-hydroxy-7-isopropyl-10-oxo-4b, 10-dihydro-9bH-indeno[1,2-b]benzofuran-9b-yl)-2-oxo propanamide] | > 10 µg/mL | < 10 µg/mL | > 10 µg/mL | > 10 µg/mL | < 0.1 µg/mL | > 10 µg/mL | > 10 µg/mL | < 0.1 µg/mL
COc1cc(C(=O)C(=O)NC23C(=O)c4ccccc4C2(O)Oc2cc(C(C)C)ccc23)cc(OC)c1OC (stereo not drawn) [Example 23, N-(4b-hydroxy-7-isopropyl-10-oxo-4b, 10-dihydro-9bH-indeno[1,2-b]benzofuran-9b-yl)-2-oxo-2-(3,4,5-trimethoxyphenyl)acetamide] | > 10 µg/mL | < 10 µg/mL | > 10 µg/mL | < 10 µg/mL | < 0.1 µg/mL | > 10 µg/mL | > 10 µg/mL | < 0.1 µg/mL
CCCC(=O)C(=O)NC12C(=O)c3c(N)cccc3C1(O)Oc1cc(C(C)C)ccc12 (stereo not drawn) [Example 52, N-(1-amino-4b-hydroxy-7-isopropyl-10-oxo-4b, 10-dihydro-9bH-indeno[1,2-b]benzofuran-9b-yl)-2-oxo pentanamide] | > 10 µg/mL | < 0.01 µg/mL | > 10 µg/mL | < 0.1 µg/mL | < 0.01 µg/mL | > 10 µg/mL | > 10 µg/mL | < 0.01 µg/mL
CC(C)c1ccc2c(c1)OC1(O)c3ccccc3C(=O)C21NC(=O)C(=O)C(C)(C)C (stereo not drawn) [Example 37, N-(4b-hydroxy-7-isopropyl-10-oxo-4b, 10-dihydro-9bH-indeno[1,2-b]benzofuran-9b-yl)-3,3-dimethyl-2-oxo butanamide] | > 10 µg/mL | < 0.1 µg/mL | > 10 µg/mL | < 10 µg/mL | < 0.1 µg/mL | > 10 µg/mL | > 10 µg/mL | < 0.1 µg/mL
CC(=O)C(=O)NC12C(=O)c3cccc([N+](=O)[O-])c3C1(O)Oc1cc(C(C)C)ccc12 (stereo not drawn) [Example 19, N-(4b-hydroxy-7-isopropyl-4-nitro-10-oxo-4b, 10-dihydro-9bH-indeno[1,2-b]benzofuran-9b-yl)-2-oxo propanamide] | > 10 µg/mL | < 10 µg/mL | > 10 µg/mL | < 10 µg/mL | < 1 µg/mL | > 10 µg/mL | > 10 µg/mL | < 1 µg/mL
CCCC(=O)C(=O)NC12C(=O)c3cccc([N+](=O)[O-])c3C1(O)Oc1cc(C(C)C)ccc12 (stereo not drawn) [Example 34, N-(4b-hydroxy-7-isopropyl-4-nitro-10-oxo-4b, 10-dihydro-9bH-indeno[1,2-b]benzofuran-9b-yl)-2-oxo pentanamide] | > 10 µg/mL | < 10 µg/mL | > 10 µg/mL | < 10 µg/mL | < 10 µg/mL | > 10 µg/mL | > 10 µg/mL | < 1 µg/mL
CCCNC(=O)OC12C(=O)c3ccccc3C1(O)Oc1cc(C(C)C)ccc12 (stereo not drawn) [Example 18, 4b-hydroxy-7-isopropyl-10-oxo-4b, 10-dihydro-9bH-indeno[1,2-b]benzofuran-9b-yl propyl carbamate] | > 10 µg/mL | > 10 µg/mL | > 10 µg/mL | > 10 µg/mL | < 10 µg/mL | > 10 µg/mL | > 10 µg/mL | < 10 µg/mL
